Test: 13C hyperpolarization by Para Hydrogen Induced Polarization (PHIP) with Goldman RF transfer sequence
Format: physicochemical
Conditions: non-deuterated, natural abundance 13C
From the text: Our objective was to test a model system of polarization that can be incorporated into peptide sequence. Dehydroalanine is an unnatural amino acid with a methylene group instead of the normal methyl side chain for alanine. Several publications laid out the framework on synthesizing peptides containing this reactive amino acid side chain double bond. (Okeley N M, Zhu Y, van der Donk W A. Facile Chemoselective Synthesis of Dehydroalanine-Containing Peptides†. Organic Letters. 2000; 2(23):3603-6). The double bond of dehydroalanine is ideally positioned for PHIP to generate a polarized ^13C carboxyl nucleus with the resulting product an alanine amino acid residue. We utilized a purchased chemical equivalent resembling dehydroalanine in a peptide chain with the terminal carboxyl and amine protected by functional groups (FIG. 1). […] The 3JHH scalar coupling (J) constant was kept at 7.47 Hz, the 3JHH value was determined by proton spectroscopy. All measured samples were combined and lyophilized to dryness, then and dissolved in 2.5 mL of diH2O and scanned (^13C spectroscopy) for 17 hours with a repetition time of 50 seconds. […]

- polarization reached with the best set of scalar coupling constants (13C carboxyl carbon of the alanine product after 3 second para-hydrogenation of 24 mM MAA in deuterium oxide, 1.4 mT PHIP instrument): 0.1±0.07%
- maximum polarization from the best sequence (approximated from the Boltzmann thermal equilibrium signal, 13C spectroscopy at 9.4T): ~0.2%
Structure (SMILES): C=C(NC(C)=O)C(=O)OC [MAA, methyl 2-acetamidoacrylate]

— patent US20180230182A1, “HYPERPOLARIZATION OF AMINO ACID RESIDUES FOR PRODUCING HYPERPOLARIZED PEPTIDES” (Cedars-Sinai Medical Center, priority 2017, published 2018)
